These results are taken from the Kinase Knowledgebase extract (Sharma et al. 2016).

The target in the first assay is MAPK14 (human) (UniProt Q16539). The experiment in a line: Inhibition of MAPK14 Kinase Activity.
Sequence of MAPK14 (human) (Q16539 whole entry, looked up): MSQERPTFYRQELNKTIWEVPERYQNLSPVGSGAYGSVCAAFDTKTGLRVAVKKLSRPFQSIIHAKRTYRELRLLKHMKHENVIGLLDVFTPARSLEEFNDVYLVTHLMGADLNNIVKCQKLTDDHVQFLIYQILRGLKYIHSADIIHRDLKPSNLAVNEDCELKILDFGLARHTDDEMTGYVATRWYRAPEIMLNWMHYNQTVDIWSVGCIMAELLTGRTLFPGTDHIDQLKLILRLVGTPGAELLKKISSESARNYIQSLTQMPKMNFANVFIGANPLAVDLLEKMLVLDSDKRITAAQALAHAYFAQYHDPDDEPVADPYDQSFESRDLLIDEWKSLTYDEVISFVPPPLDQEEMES
Settings: not given
For the molecule `CC(C)(C)c1cc(C(=O)N2CCNC(=O)CC2)c(NC(=O)Nc2ccc(C#N)c(Cl)c2Cl)s1`, the IC50 (as a rule, the point on the concentration scale where inhibition reaches its midpoint) is less than 5 µM.

`CN(C)CCNC(=O)CN1CCN(C(=O)c2cc(C(C)(C)C)sc2NC(=O)Nc2cccc(Cl)c2Cl)CC1` returned an IC50 of less than 5 µM.

As to `CC(C)(C)c1nc(C(=O)N2CCNC(=O)C2(C)C)c(NC(=O)Nc2cccc(Cl)c2Cl)s1`, the IC50 is less than 5 µM.

The molecule `CC(C)(C)c1cc(C(=O)N2CCNC(=O)CC2)c(NC(=O)Nc2cccc3c2OCO3)s1` had an IC50 of less than 5 µM.

Take `CC(C)(C)c1cc(C(=O)N2CCNC(=O)C2(C)CCO)c(NC(=O)Nc2cccc(Cl)c2Cl)s1` (stereo unspecified): the IC50 was less than 5 µM.

Consider `CON(C)C(=O)CN1CCN(C(=O)c2cc(C(C)(C)C)sc2NC(=O)Nc2ccc(F)cc2Cl)C(C)(C)C1=O`, for which the IC50 was less than 5 µM.

As for `CCCNC(=O)CN1CCN(C(=O)c2cc(C(C)(C)C)sc2NC(=O)Nc2cccc(Cl)c2Cl)C(C)(C)C1=O`, the IC50 was less than 5 µM.

Consider `CN(C)CCNC(=O)CN1CCN(C(=O)c2cc(C(C)(C)C)[nH]c2NC(=O)Nc2cccc(Cl)c2Cl)C(C)(C)C1=O`, for which the IC50 was less than 5 µM.

For `CN(C)CCN1CCN(C(=O)c2[nH]c(C(C)(C)C)cc2NC(=O)Nc2cccc(Cl)c2Cl)CCC1=O`, the IC50 is less than 5 µM.

`CC(C)(C)c1cc(C(=O)N2CCC(=O)N(CCN)CC2)c(NC(=O)Nc2cccc(Cl)c2Cl)s1`: the IC50 was less than 5 µM.

On to `CCC1(C)C(=O)N(CC(=O)NCCN2CCCC2)CCN1C(=O)c1cc(C(C)(C)C)sc1NC(=O)Nc1cccc(Cl)c1Cl` (stereo unspecified), for which the IC50 was less than 5 µM.

`CCC1(C)C(=O)NCCN1C(=O)c1cc(C(C)(C)C)sc1NC(=O)Nc1cccc(Cl)c1Cl` (stereo unspecified): the IC50 is less than 5 µM.

The molecule `COC(=O)CN1CCN(C(=O)c2cc(C(C)(C)C)sc2NC(=O)Nc2cccc(Cl)c2Cl)C(C)(C)C1=O` registered an IC50 of less than 5 µM.

As for `Cc1ccccc1NC(=O)Nc1sc(C(C)(C)C)cc1C(=O)N1CCN(CCN(C)C)C(=O)C1(C)C`, the IC50 was less than 5 µM.

Molecule `CC(C)(C)c1cc(C(=O)N2CCNC(=O)CC2)c(NC(=O)Nc2ccc(O)c(Cl)c2Cl)s1` displayed an IC50 of less than 5 µM.

In turn, `COc1ccc(CN2CCN(C(=O)c3cc(C(C)(C)C)sc3NC(=O)Nc3cccc(Cl)c3Cl)C(C)(C)C2=O)cc1` registered an IC50 of less than 5 µM.

Take `CC(C)(C)c1cc(C(=O)N2CCS(=O)(=O)CC2)c(NC(=O)Nc2ccc3c(c2Cl)OCO3)s1`: the IC50 is less than 5 µM.

In turn, `CON(C)C(=O)CN1CCN(C(=O)c2cc(C(C)(C)C)sc2NC(=O)Nc2ccc(F)c(Cl)c2Cl)C(C)(C)C1=O` displayed an IC50 of less than 5 µM.

The molecule `CC(C)(C)c1cc(C(=O)N2CCNC(=O)[C@@H]2CCc2ccccc2)c(NC(=O)Nc2cccc(Cl)c2Cl)s1` had an IC50 of less than 5 µM.

`CC(C)(C)c1cc(C(=O)N2CCN(CCO)C(=O)C2(C)C)c(NC(=O)Nc2cccc(Cl)c2Cl)s1` returned a concentration for half-maximal inhibition (IC50) of less than 5 µM.

For `CCN(CC)CCNC(=O)CN1CCN(C(=O)c2cc(C(C)(C)C)sc2NC(=O)Nc2cccc(Cl)c2Cl)C(C)(C)C1=O`, the IC50 is less than 5 µM.

For the molecule `CN(C)CCNC(=O)CN1CCN(C(=O)c2cc(C(C)(C)C)sc2NC(=O)Nc2ccc(F)c(F)c2Cl)CCC1=O`, the IC50 is less than 5 µM.

For the molecule `CN(C)CCN1CCN(C(=O)c2cc(C(C)(C)C)sc2NC(=O)Nc2c(Cl)cncc2Cl)C(C)(C)C1=O`, the IC50 is less than 5 µM.

`C[C@@H]1C(=O)NCCN1C(=O)c1cc(C(C)(C)C)sc1NC(=O)Nc1cccc(Cl)c1Cl` yielded an IC50 of less than 5 µM.

`CCc1ccccc1NC(=O)Nc1sc(C(C)(C)C)cc1C(=O)N1CCN(CCN(C)C)C(=O)C1(C)C` had an IC50 of less than 5 µM.

As to `CC(C)(C)c1cc(C(=O)N2CCC(=O)N(CCc3nnn[nH]3)CC2)c(NC(=O)Nc2cccc(Cl)c2Cl)s1`, the IC50 was less than 5 µM.

As to `CC(C)(C)c1cc(C(=O)N2CCN(CCC(=O)N(CCO)CCO)C(=O)C2(C)C)c(NC(=O)Nc2cccc(Cl)c2Cl)s1`, the IC50 was less than 5 µM.

Take `Cc1noc(CN2CCN(C(=O)c3cc(C(C)(C)C)sc3NC(=O)Nc3ccc(F)c(Cl)c3Cl)C(C)(C)C2=O)n1`: the half-maximal inhibitory concentration (IC50) was less than 5 µM.

In turn, `CC(C)(C)OC(=O)N1CCN(C(=O)c2cc(C(C)(C)C)sc2NC(=O)Nc2cccc(Cl)c2Cl)CC1` returned an IC50 of less than 5 µM.

`CC(C)(C)c1cc(C(=O)N2CCNC(=O)C2(C)CC(N)=O)c(NC(=O)Nc2cccc(Cl)c2Cl)s1` (stereo unspecified) gave an IC50 of less than 5 µM.

`CN(C)CCN1CCN(C(=O)c2[nH]c(C(C)(C)C)cc2NC(=O)Nc2ccc(F)c(Cl)c2Cl)CCC1=O`: the IC50 was less than 5 µM.

`COC(=O)CC1CC(=O)NCCN1C(=O)c1cc(C(C)(C)C)sc1NC(=O)Nc1cccc(Cl)c1Cl` (stereo unspecified) yielded an IC50 of less than 5 µM.

For the molecule `COC(=O)CN1CCN(C(=O)c2cc(C(C)(C)C)sc2NC(=O)Nc2cccc(Cl)c2Cl)CC1`, the IC50 was less than 5 µM.

Regarding `CC(C)(C)c1cc(C(=O)N2CCNC(=O)C2(C)C)c(NC(=O)Nc2ccccc2Cl)s1`, the concentration for half-maximal inhibition (IC50) is less than 5 µM.

On to `COC(=O)CC1(C)C(=O)NCCN1C(=O)c1cc(C(C)(C)C)[nH]c1NC(=O)Nc1cccc(Cl)c1Cl` (stereo unspecified), for which the IC50 is less than 5 µM.

With `CC(C)(C)c1cc(C(=O)N2CCNC(=O)CC2)c(NC(=O)Nc2ccccc2Cl)s1`, the IC50 is less than 5 µM.

Take `CN(C)CCN1CCN(C(=O)c2cc(C(C)(C)C)sc2NC(=O)Nc2ccncc2Cl)C(C)(C)C1=O`: the IC50 was less than 5 µM.

The molecule `COc1ccccc1NC(=O)Nc1sc(C(C)(C)C)cc1C(=O)N1CCN(CCN(C)C)C(=O)C1(C)C` displayed an IC50 of less than 5 µM.

Molecule `Cc1ccccc1NC(=O)Nc1sc(C(C)(C)C)cc1C(=O)N1CCNC(=O)CC1` gave an IC50 of less than 5 µM.

`CCC1(C)C(=O)N(C)CCN1C(=O)c1cc(C(C)(C)C)sc1NC(=O)Nc1cccc(Cl)c1Cl` (stereo unspecified) yielded an IC50 of less than 5 µM.

Take `CN1CCN(C(=O)c2cc(C(C)(C)C)n(C)c2NC(=O)Nc2cccc(Cl)c2Cl)C(C)(C)C1=O`: the IC50 was less than 5 µM.

As to `CCC1(C)C(=O)N(CC(=O)OC)CCN1C(=O)c1cc(C(C)(C)C)sc1NC(=O)Nc1cccc(Cl)c1Cl` (stereo unspecified), the IC50 is less than 5 µM.

As for `CN(C)CCN1CCN(C(=O)c2cc(C(C)(C)C)sc2NC(=O)Nc2ccc(F)c(Cl)c2Cl)C(C)(C)C1=O`, the IC50 is less than 5 µM.

For `CC(C)(C)c1cc(C(=O)N2CCNC(=O)C2(C)CC(N)=O)c(NC(=O)Nc2ccc(F)c(Cl)c2Cl)s1` (stereo unspecified), the IC50 was less than 5 µM.

For the molecule `CC(C)(C)c1cc(C(=O)N2CCNC(=O)CC2)c(NC(=O)Nc2ccc3c(c2Cl)OCO3)s1`, the IC50 was less than 5 µM.

`CC(C)(C)c1cc(C(=O)N2CCNC(=O)CC2)c(NC(=O)Nc2ccccc2I)s1` yielded an IC50 of less than 5 µM.

Turning to `CC(C)(C)c1cc(C(=O)N2CCN(CC(N)=O)C(=O)C2(C)C)c(NC(=O)Nc2cccc(Cl)c2Cl)s1`, the IC50 is less than 5 µM.

In turn, `CC(C)(C)c1cc(C(=O)N2CCN(C(=O)CCCC[C@@H]3SC[C@@H]4NC(=O)N[C@@H]43)CC2)c(NC(=O)Nc2cccc(Cl)c2Cl)s1` gave an IC50 of less than 5 µM.

`COc1ccc(NC(=O)Nc2sc(C(C)(C)C)cc2C(=O)N2CCNC(=O)CC2)c(Cl)c1Cl`: the IC50 is less than 5 µM.

Molecule `CC(C)(C)c1cc(C(=O)N2CCNC(=O)C23CC3)c(NC(=O)Nc2cccc(Cl)c2Cl)s1` registered an IC50 of less than 5 µM.

`CC(C)(C)c1cc(C(=O)N2CCNC(=O)CC2)c(NC(=O)Nc2ccc(Cl)cc2Cl)s1` registered an IC50 of less than 5 µM.

The molecule `O=C(Nc1cc(C(F)(F)F)c(Cl)cc1C(=O)N1CCS(=O)(=O)CC1)Nc1cccc(Cl)c1Cl` showed an IC50 of less than 5 µM.

As to `CC(C)(C)c1cc(C(=O)N2CCNC(=O)CC2)c(NC(=O)Nc2ccccc2C(C)(C)C)s1`, the IC50 is less than 5 µM.

`Cc1ccccc1NC(=O)Nc1sc(C(C)(C)C)cc1C(=O)N1CCNC(=O)C1(C)C` yielded an IC50 of less than 5 µM.

As to `CC(C)(C)c1cc(NC(=O)Nc2ccc(F)c(Cl)c2Cl)c(C(=O)N2CCNC(=O)C2(C)CCO)s1` (stereo unspecified), the IC50 is less than 5 µM.

With `Cc1cccc(NC(=O)Nc2sc(C(C)(C)C)cc2C(=O)N2CCC(=O)N(CCN(C)C)CC2)c1Cl`, the concentration for half-maximal inhibition (IC50) was less than 5 µM.

The molecule `CN(C)CCN1CCN(C(=O)c2cc(C(C)(C)C)sc2NC(=O)Nc2ccc(F)cc2Cl)CCC1=O` registered an IC50 of less than 5 µM.

Turning to `CN1CCN(C(=O)c2cc(C(C)(C)C)sc2NC(=O)Nc2cccc(Cl)c2Cl)C(C)(C)C1=O`, the IC50 is less than 5 µM.

As to `CC(C)(C)c1cc(NC(=O)Nc2cccc(Cl)c2Cl)c(C(=O)N2CCS(=O)(=O)CC2)o1`, the IC50 is less than 5 µM.

In turn, `CN(C)CCN1CCN(C(=O)c2cc(C(C)(C)C)sc2NC(=O)Nc2cccnc2Cl)CCC1=O` had an IC50 of less than 5 µM.

`CC(C)(C)c1cc(NC(=O)Nc2ccc(F)c(Cl)c2Cl)c(C(=O)N2CCNS(=O)(=O)CC2)[nH]1`: the IC50 is less than 5 µM.

In the case of `CC(C)c1ccccc1NC(=O)Nc1sc(C(C)(C)C)cc1C(=O)N1CCNC(=O)CC1`, the IC50 is less than 5 µM.

As to `COc1ccccc1NC(=O)Nc1sc(C(C)(C)C)cc1C(=O)N1CCNC(=O)CC1`, the IC50 was less than 5 µM.

Regarding `CC(C)(C)c1cc(C(=O)N2CCN(C(=O)N3CCOCC3)CC2)c(NC(=O)Nc2cccc(Cl)c2Cl)s1`, the IC50 is less than 5 µM.

As for `CN(C)C(=O)N1CCN(C(=O)c2cc(C(C)(C)C)sc2NC(=O)Nc2cccc(Cl)c2Cl)CC1`, the IC50 was less than 5 µM.

The assay is the same for the next values; noted with them: concentration not given here.
For the molecule `CC(C)(C)c1cc(C(=O)N2CCNS(=O)(=O)CC2)c(NC(=O)Nc2cnc(O)c3ccccc23)s1`, the inhibition – broadly, the share of the control response that was lost under treatment – lay within 26 to 50%.

`CC(C)(C)c1cc(C(=O)N2CCNC(=O)CC2)c(NC(=O)Nc2ccc(CN)cc2)s1` displayed an inhibition of 51 to 75%.

Molecule `Cn1ccc(NC(=O)Nc2sc(C(C)(C)C)cc2C(=O)N2CCNS(=O)(=O)CC2)n1` returned an inhibition of 26 to 50%.

`CC(C)(C)c1cc(C(=O)N2CCNC(=O)CC2)c(NC(=O)Nc2ccc(C#N)c(Cl)c2)s1`: the inhibition was 76 to 100%.

The molecule `CC(C)(C)c1cc(C(=O)N[C@@H]2CC(=O)NC2=O)c(NC(=O)Nc2ccc3ccccc3c2)s1` yielded an inhibition of 76 to 100%.

Consider `COCCN1CCN(C(=O)c2cc(C(C)(C)C)sc2NC(=O)Nc2cccc(Cl)c2Cl)CCC1=O`, for which the inhibition was 76 to 100%.

Consider `CC(C)(C)c1cc(C(=O)N[C@@H]2CC(=O)NC2=O)c(NC(=O)Nc2ccc(Cl)cc2)s1`, for which the inhibition was 76 to 100%.

The molecule `CC(C)(C)c1cc(C(=O)N2CCNC(=O)CC2)c(NC(=O)Nc2ccc3ocnc3c2)s1` came in with an inhibition of 76 to 100%.

`CC(C)(C)c1cc(C(=O)N2CCC(=O)N(CC(N)=O)CC2)c(NC(=O)Nc2cccc(Cl)c2Cl)s1` showed an inhibition of 76 to 100%.

In the case of `CNC(=O)Nc1cc(C(C)(C)C)sc1C(=O)N1CCNC(=O)CC1`, the inhibition is 0 to 25%.

As to `CC(C)(C)c1cc(C(=O)N2CCNC(=O)CC2)c(NC(=O)Nc2ccc(CN)c3ccccc23)s1`, the inhibition was in the range of 76 to 100%.
